{"source": "patent US12285426B2", "about": "“Combination serotonin specific reuptake inhibitor and serotonin 1A receptor partial agonist for reducing L-DOPA-induced dyskinesia” (The Research Foundation for The State University of new York, priority 2018, dated 2025)", "key": {"[1]": {"conditions": "cited from earlier work"}, "[2]": {"tested_on": "lesion-induced motor deficits", "assay": "FIG. 23D: % intact stepping", "type": "in vivo", "conditions": "L-DOPA alone or with AMA 40 mg/kg and/or VZD 2.5 mg/kg"}, "[3]": {"tested_on": "L-DOPA-induced dyskinesia", "assay": "FIG. 23A-23C: ALO AIMs, vilazodone and/or amantadine with L-DOPA", "conditions": "for ALO AIMs, combined amantadine and vilazodone: VZD 2.5 mg/kg, AMA 40 mg/kg, L-DOPA"}, "dyskinesia": {"tested_on": "dyskinesia", "conditions": "human and animal studies; cited from earlier work"}, "[4]": {"tested_on": "L-DOPA-induced dyskinesia", "assay": "FIG. 24: LID development over 14 days, vilazodone and/or amantadine", "type": "in vivo", "conditions": "for ALO AIMs, LID development: over 14 days", "description": "FIGS. 24B-24E show percent intact+S.E.M. over time for the respective groups."}, "TRPV1 ion channel": {"target": "TRPV1 ion channel (Homo sapiens, UniProt Q8NER1)", "sequence (Q8NER1 whole entry)": "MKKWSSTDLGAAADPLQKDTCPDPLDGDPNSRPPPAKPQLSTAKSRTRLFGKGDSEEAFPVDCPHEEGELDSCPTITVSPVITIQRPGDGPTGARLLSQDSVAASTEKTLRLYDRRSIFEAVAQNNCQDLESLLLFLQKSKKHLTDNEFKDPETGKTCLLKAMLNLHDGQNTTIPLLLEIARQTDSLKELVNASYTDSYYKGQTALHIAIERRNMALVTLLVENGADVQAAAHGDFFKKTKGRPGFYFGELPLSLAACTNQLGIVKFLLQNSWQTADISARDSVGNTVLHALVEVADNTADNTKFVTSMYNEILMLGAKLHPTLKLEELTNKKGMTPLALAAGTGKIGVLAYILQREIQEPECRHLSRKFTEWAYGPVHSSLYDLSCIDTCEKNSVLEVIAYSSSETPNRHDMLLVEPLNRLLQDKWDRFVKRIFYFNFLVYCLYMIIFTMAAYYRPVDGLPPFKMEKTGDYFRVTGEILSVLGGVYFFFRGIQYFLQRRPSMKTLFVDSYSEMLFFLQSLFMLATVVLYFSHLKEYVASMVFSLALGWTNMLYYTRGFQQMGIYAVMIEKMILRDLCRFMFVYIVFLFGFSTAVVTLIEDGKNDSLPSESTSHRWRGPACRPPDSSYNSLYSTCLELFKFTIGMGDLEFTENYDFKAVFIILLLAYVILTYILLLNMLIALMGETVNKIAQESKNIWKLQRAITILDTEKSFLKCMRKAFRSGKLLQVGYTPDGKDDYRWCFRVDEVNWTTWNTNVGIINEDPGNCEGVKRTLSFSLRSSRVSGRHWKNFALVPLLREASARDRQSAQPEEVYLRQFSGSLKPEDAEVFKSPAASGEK", "conditions": "depending on the pharmacological assay; cited from earlier work"}, "[5]": {"tested_on": "striatum and DRN monoamines and metabolites", "assay": "Experiment 1: HPLC of striatal and dorsal raphe tissue monoamines", "type": "in vivo, rat", "procedure": "Rats (n=30) were rendered hemi-parkinsonian with unilateral 6-OHDA lesions of the left MFB. Three-weeks post-lesion, animals were divided into 2 equally disabled groups, measured by forepaw adjusting steps (FAS, see below). One group (n=8) began receiving 14 days of daily vehicle (0.9% NaCl+0.1% ascorbic acid) and the other (n=22) received L-DOPA methyl ester (6 mg/kg, s.c.; Sigma)+DL-serine 2-(2,3,4-trihydroxybenzyl) hydrazine hydrochloride (benserazide; 15 mg/kg, s.c.; Sigma), hereafter L-DOPA, dissolved in vehicle at a volume of 1 mL/kg. […] Thereafter, L-DOPA-treated animals with Axial, Limb, and Orolingual (ALO) AIMs (see description below, FIG. 1A)<30 were excluded from the study and the remaining L-DOPA-treated animals were divided into 3 equally dyskinetic groups. […] Daily injections continued over 23 days, with behavior assayed on Days 15, 22, 29, and 36. On Day 37, animals were killed 60 min post-treatment. Left and right dorsal striata and DRN were dissected and flash frozen for HPLC analyses.\nHigh-performance liquid chromatography (HPLC): HPLC, a method for semi-automated catecholamine analysis with coulometric detection, was performed according to prior protocols (Bishop et al., 2009) to determine the tissue levels of monoamines, their metabolites, and monoamine turnover in the striatum and DRN. The limit of detection for DOPAC, DA, 5-hydroxyindoleacetic acid (5-HIAA) and 5-HT was 10^−10 M. Final oxidation current values were plotted on a standard curve from 10^−6 M to 10^−9 M and expressed as pg of monoamine or metabolite per mg of tissue unless otherwise specified.\nOn the final treatment day, animals were sacrificed 60 min post-LD treatment and left and right striata and dorsal raphe nucleus (DRN) were collected for high performance liquid chromatography (HPLC) analysis. Values (means±standard mean error) are expressed as picograms of monoamine or metabolite per milligram wet tissue weight. Turnover estimates were determined by dividing a subject's metabolite value by its corresponding monoamine."}, "[6]": {"tested_on": "striatal c-Fos, PPD, PPE, PPT, 5-HT1AR mRNA", "assay": "Experiment 2: real-time RT-PCR of striatal gene expression"}, "[7]": {"tested_on": "6-OHDA-lesioned rats, forelimb akinesia", "assay": "Example 2: stepping test", "type": "in vivo, rat", "conditions": "60 minutes post L-DOPA", "procedure": "6-OHDA-induced dopaminergic lesions: Adult male Sprague-Dawley rats were randomly assigned to groups receiving either a 6-OHDA or sham lesion. All rats received desipramine (10 mg/kg i.p.) 30 min prior to surgery to prevent the lesioning of norepinephrine neurons by 6-OHDA. A single injection of 6-OHDA (8 μg of 6-OHDA free base in 4 p of 0.1% ascorbic acid) was delivered into the right medial forebrain bundle (coordinates taken from bregma: −4.3 mm AP, 1.6 mm ML, −8.3 mm DV). The same experimental treatment was performed for the sham-operated rats using vehicle (4 μl of 0.1% ascorbic acid). A standard stepping test was used to evaluate the effectiveness of the 6-OHDA lesion.\nRats were treated for 5 consecutive days/week (Mon-Fri), for 2 weeks. On the second day of each week, stepping tests were performed prior to drug administration, and 60 minutes post L-DOPA treatment."}, "[8]": {"tested_on": "6-OHDA-lesioned rats, L-DOPA-induced dyskinesia", "assay": "Experiment 1: AIMs, established LID in L-DOPA-primed hemi-parkinsonian rats", "type": "in vivo, rat"}, "NET": {"target": "NET (Homo sapiens, UniProt P23975)", "sequence (P23975 whole entry)": "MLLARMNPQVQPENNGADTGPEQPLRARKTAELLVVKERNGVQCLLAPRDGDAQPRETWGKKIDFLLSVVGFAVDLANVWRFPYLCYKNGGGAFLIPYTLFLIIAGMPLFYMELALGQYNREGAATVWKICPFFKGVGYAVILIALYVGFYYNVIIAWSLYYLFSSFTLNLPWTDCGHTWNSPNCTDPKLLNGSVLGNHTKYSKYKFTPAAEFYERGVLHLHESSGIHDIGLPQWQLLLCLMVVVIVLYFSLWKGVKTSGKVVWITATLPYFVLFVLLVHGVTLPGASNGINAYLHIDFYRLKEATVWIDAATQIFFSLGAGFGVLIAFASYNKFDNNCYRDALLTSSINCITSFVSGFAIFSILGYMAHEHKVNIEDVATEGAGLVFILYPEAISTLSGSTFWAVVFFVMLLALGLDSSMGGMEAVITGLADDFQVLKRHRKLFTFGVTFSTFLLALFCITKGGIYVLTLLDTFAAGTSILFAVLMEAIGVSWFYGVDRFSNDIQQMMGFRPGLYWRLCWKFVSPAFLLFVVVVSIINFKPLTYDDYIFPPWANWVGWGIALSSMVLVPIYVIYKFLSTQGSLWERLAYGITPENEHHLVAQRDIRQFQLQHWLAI", "conditions": "cited from earlier work"}, "[9]": {"tested_on": "6-OHDA-lesioned rats, L-DOPA-induced dyskinesias", "assay": "Example 2: LIDs scoring in unilateral 6-OHDA-lesioned rats", "type": "in vivo, rat", "conditions": "vilazodone 10 mg/kg or escitalopram 12.5 mg/kg + L-DOPA 5 mg/kg, 2 weeks", "description": "6-OHDA-induced dopaminergic lesions: Adult male Sprague-Dawley rats were randomly assigned to groups receiving either a 6-OHDA or sham lesion. […] [[…] 2019]. […] Rats were treated for 5 consecutive days/week (Mon-Fri), for 2 weeks. […] All rats were evaluated three times per week for the presence of L-DOPA-induced dyskinesias (LIDs) (Wed-Fri) and once for the stepping test (Tue). […] Scores were given over 1 min epochs and classified as axial, limb, orolingual and locomotive. […] The severity of each LID was scored using a standard scale. Each dyskinetic behavior was given an intensity and frequency score, which were then multiplied. The average sum of the products of each LID was determined in each animal."}, "[10]": {"tested_on": "L-DOPA-primed 6-OHDA-lesioned rats; 5-HT1BR", "assay": "Experiment 3: AIMs with 5-HT1BR antagonist NAS-181", "type": "in vivo, rat", "conditions": "VZD 10 mg/kg, NAS-181 3.0 mg/kg, LD 6 mg/kg s.c.", "procedure": "All 6-OHDA-lesioned rats (n=17) were tested on the FAS prior to treatment regimens to establish baseline motor performance. Three-weeks post-surgery, all rats were primed with L-DOPA (6 mg/kg, s.c.) for 14 days.\nBeginning 10 min post-treatment, a trained and blinded observer assigned a severity score (0-4) to each of the ALO AIMs based on 1 min ratings every 10 min for 3 h: 0, not present; 1, present from 1-29 s; 2, present 30-59s; 3, present all 60 s, but interruptible by a cylinder tap; 4, present 60 s and not interruptible by a cylinder tap."}, "[11]": {"tested_on": "6-OHDA-lesioned rats, L-DOPA-induced dyskinesia", "assay": "Experiment 2: AIMs, LID development in L-DOPA-naive hemi-parkinsonian rats", "type": "in vivo, rat", "conditions": "VZD 10 or 20 mg/kg + LD 6 mg/kg, treatment naive, 3 weeks"}, "[12]": {"target": "T1, 5-HT1A receptor expressed in SF9 cells (Homo sapiens, UniProt P08908)", "T1 construct": "expressed in transfected cells; host or cells: SF9 cells", "T1 sequence (P08908 1-422)": "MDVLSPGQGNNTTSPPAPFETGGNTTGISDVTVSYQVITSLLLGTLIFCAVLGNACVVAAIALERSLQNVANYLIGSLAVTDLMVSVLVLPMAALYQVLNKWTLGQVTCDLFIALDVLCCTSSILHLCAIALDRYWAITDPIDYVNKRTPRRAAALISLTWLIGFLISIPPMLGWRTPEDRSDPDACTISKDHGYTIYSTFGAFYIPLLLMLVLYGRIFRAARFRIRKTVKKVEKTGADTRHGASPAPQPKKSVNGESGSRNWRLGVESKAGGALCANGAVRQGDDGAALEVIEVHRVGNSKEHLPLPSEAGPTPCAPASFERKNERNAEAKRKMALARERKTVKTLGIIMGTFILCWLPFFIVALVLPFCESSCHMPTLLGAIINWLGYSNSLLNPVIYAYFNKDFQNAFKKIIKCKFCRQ", "conditions": "cited from earlier work"}, "DAT": {"target": "DAT (Homo sapiens, UniProt Q01959)", "sequence (Q01959 whole entry, species assumed)": "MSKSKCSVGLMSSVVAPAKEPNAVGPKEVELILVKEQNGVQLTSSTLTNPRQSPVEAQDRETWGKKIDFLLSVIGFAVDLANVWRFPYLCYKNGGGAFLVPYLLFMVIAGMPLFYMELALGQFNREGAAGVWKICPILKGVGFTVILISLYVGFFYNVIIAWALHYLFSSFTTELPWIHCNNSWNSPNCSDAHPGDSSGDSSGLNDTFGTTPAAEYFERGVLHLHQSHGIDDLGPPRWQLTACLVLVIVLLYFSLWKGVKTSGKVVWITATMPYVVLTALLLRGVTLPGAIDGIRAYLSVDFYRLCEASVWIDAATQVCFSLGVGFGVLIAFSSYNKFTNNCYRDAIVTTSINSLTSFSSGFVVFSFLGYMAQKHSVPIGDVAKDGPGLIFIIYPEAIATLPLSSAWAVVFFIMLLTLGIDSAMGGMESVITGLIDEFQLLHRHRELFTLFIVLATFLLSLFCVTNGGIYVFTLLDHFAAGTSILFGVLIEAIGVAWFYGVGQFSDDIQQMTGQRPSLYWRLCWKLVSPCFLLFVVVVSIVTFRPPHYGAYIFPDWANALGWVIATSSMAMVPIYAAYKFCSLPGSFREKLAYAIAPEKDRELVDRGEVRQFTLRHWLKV", "conditions": "cited from earlier work"}, "[13]": {"tested_on": "6-OHDA-lesioned rats, forelimb akinesia", "assay": "Experiment 2: forepaw adjusting steps (FAS)", "type": "in vivo, rat", "description": "(§1) Forepaw adjusting steps (FAS): The FAS test is a measure of forelimb akinesia performed according to previous protocols (Bishop et al., 2012; Chang et al., 1999). Data are presented as mean percent intact stepping where the sum of the total steps with the lesioned forepaw was divided by the total steps with the unlesioned forepaw multiplied by 100. Lower percent intact scores indicate greater forelimb akinesia. Prior to baseline, rats received 2 acclimation periods. On-treatment FAS was performed 60 min post-L-DOPA."}, "[14]": {"tested_on": "extracellular levels of norepinephrine or dopamine", "conditions": "1 and 10 mg/kg; cited from earlier work"}, "[15]": {"tested_on": "6-OHDA-lesioned rats, forelimb akinesia", "assay": "Experiment 1: forepaw adjusting steps (FAS)", "type": "in vivo, rat", "description": "as §1, with “Conti et al., 2014). […] Forepaw” for “Forepaw”"}, "hemi-parkinsonian rats": {"tested_on": "hemi-parkinsonian rats", "assay": "Side effects during chronic Vilazodone treatment", "type": "in vivo, rat"}, "[16]": {"tested_on": "MSNs of dyskinetic 6-OHDA-lesioned rats", "assay": "Example 2: electrophysiology of striatal MSNs", "type": "in vivo, rat", "conditions": "co-administration with L-DOPA"}, "[17]": {"tested_on": "L-DOPA-primed 6-OHDA-lesioned rats; 5-HT1AR"}, "SERT": {"target": "SERT (Homo sapiens, UniProt P31645)", "sequence (P31645 whole entry, species assumed)": "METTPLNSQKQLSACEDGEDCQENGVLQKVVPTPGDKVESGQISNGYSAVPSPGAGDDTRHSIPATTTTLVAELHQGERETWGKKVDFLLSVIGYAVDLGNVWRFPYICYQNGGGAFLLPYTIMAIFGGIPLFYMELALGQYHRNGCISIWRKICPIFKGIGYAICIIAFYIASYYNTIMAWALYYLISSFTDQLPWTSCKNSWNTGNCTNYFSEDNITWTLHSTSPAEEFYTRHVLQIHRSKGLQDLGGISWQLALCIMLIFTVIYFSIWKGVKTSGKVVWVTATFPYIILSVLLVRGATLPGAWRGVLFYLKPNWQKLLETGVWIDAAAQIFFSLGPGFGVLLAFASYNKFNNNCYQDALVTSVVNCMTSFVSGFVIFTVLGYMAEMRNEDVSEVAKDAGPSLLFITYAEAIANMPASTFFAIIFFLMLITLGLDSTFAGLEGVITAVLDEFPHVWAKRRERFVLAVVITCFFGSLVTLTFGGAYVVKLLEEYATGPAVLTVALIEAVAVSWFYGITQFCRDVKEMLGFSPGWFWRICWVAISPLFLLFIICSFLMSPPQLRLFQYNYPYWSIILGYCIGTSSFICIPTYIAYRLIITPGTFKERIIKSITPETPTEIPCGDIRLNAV", "conditions": "clinically effective dose range 5-20 mg/day; cited from earlier work"}}, "note": "pIC50: −log10 of the molar value."}
{"compound": "NC12CC3CC(CC(C3)C1)C2", "note": "[Amantadine, 1-adamantanamine]", "values": [{"measurement": "peak plasma concentrations", "setting": "[1]; IR 100 mg twice a day", "value": "< 1,000 ng/mL"}, {"measurement": "half-life", "setting": "[1]; in vivo", "value": "around 17 hours"}, {"measurement": "maximum plasma concentration", "setting": "[1]; single dose 100 mg", "value": "around 220 ng/mL"}, {"measurement": "% intact stepping", "setting": "[2]", "value": "may reduce improvements"}, {"measurement": "side effects", "setting": "[3]; AMA 60 mg/kg", "value": "appeared to produce side effects"}, {"measurement": "ALO AIMs", "setting": "[3]; AMA 20, 40, 60 mg/kg + L-DOPA", "value": "did not appear to alter AIMs"}, {"measurement": "ALO AIMs, combined amantadine and vilazodone", "setting": "[3]", "value": "counteracted by Amantadine"}, {"measurement": "EC50 (plasma level reducing dyskinesia by 50%)", "setting": "dyskinesia", "value": "1,400 ng/mL"}, {"measurement": "ALO AIMs, LID development", "setting": "[4]", "value": "initially reduced AIMs, but this suppression diminished over time"}]}
{"compound": "Oc1cc2c(cc1O)CN(C(=S)NCCc1ccc(Cl)cc1)CCC2", "note": "[Capsazepine]", "values": [{"measurement": "IC50", "setting": "TRPV1 ion channel", "value": "nanomolar to low micromolar range"}]}
{"compound": "Cl.N#Cc1ccc2[nH]cc(CCCCN3CCN(c4ccc5oc(C(N)=O)cc5c4)CC3)c2c1", "note": "[Vilazodone, 5-{4-[4-(5-cyano-3-indolyl)-butyl]-1-piperazinyl}-benzofuran-2-carboxamide hydrochloride]", "values": [{"measurement": "5-HIAA", "setting": "[5]; Dorsal Raphe Nucleus, VZD(10)+LD(6) mg/kg s.c.", "value": 12541, "unit": "pg/mg wet tissue weight"}, {"measurement": "5-HT Turnover", "setting": "[5]; Striatum Lesion, VZD(10)+LD(6) mg/kg s.c.", "value": 8.38}, {"measurement": "DRN 5-HT", "setting": "[5]; VZD 10 mg/kg + LD", "value": "significantly increased DRN 5-HT"}, {"measurement": "striatal 5-HIAA", "setting": "[5]; VZD 20 mg/kg", "value": "attenuated 5-HIAA compared to all other treatments"}, {"measurement": "striatal 5-HT Turnover", "setting": "[5]; VZD 20 mg/kg vs VZD(0)+LD(0)", "value": "reduced 5-HT Turnover"}, {"measurement": "DRN DA Turnover", "setting": "[5]; VZD 10 or 20 mg/kg + LD", "value": "DA Turnover was attenuated"}, {"measurement": "DRN 5-HT Turnover", "setting": "[5]; both doses VZD + LD", "value": "attenuated 5-HT Turnover"}, {"measurement": "DA in lesioned striatum (planned comparisons)", "setting": "[5]; both doses VZD vs VZD vehicle groups", "value": "significantly increased DA in the lesioned striatum"}, {"measurement": "striatal PPE mRNA", "setting": "[6]; lesioned striata, LD 6 mg/kg, VZD 20 mg/kg, day 23", "value": "modestly, though significantly reduced"}, {"measurement": "striatal PPD mRNA", "setting": "[6]; lesioned striata, LD 6 mg/kg, VZD 10/20 mg/kg, day 23", "value": "dose-dependently attenuated"}, {"measurement": "striatal c-Fos mRNA", "setting": "[6]; lesioned striata, LD 6 mg/kg, VZD 10 or 20 mg/kg, day 23", "value": "diminished by either dose"}, {"measurement": "striatal 5-HT1AR mRNA", "setting": "[6]; rat, in vivo", "value": "did not affect striatal 5-HT1AR mRNA"}, {"measurement": "striatal PPT mRNA", "setting": "[6]; rat, in vivo", "value": "reduced striatal PPT"}, {"measurement": "forelimb akinesia / L-DOPA therapeutic (prokinetic) efficacy", "setting": "[7]", "value": "no effects on forelimb akinesia or L-DOPA-induced prokinetic effects"}, {"measurement": "ALO AIMs, established LID", "setting": "[8]; VZD 10 or 20 mg/kg s.c. 5 min before LD 6 mg/kg, vs VZD(0)+LD(6), from first day, persisted throughout treatment", "value": "dramatically reduced AIMs"}, {"measurement": "anti-LID efficacy, 20 mg/kg vs 10 mg/kg", "setting": "[8]; dissipated after the first week", "value": "initially had greater anti-LID efficacy than the lower dose"}, {"measurement": "pIC50", "setting": "NET", "value": 7.25}, {"measurement": "LIDs severity", "setting": "[9]", "value": "most significant effect on attenuating LIDs"}, {"measurement": "ALO AIMs", "setting": "[10]", "value": "significantly reduced ALO AIMs"}, {"measurement": "ALO AIMs, LID development", "setting": "[11]", "value": "significantly attenuated the development of LID"}, {"measurement": "increase of [35S]GTPyS binding compared to vehicle", "setting": "[12]", "value": "fourfold"}, {"measurement": "pIC50", "setting": "DAT", "value": 7.43}, {"measurement": "ALO AIMs, combined amantadine and vilazodone", "setting": "[3]", "value": "continued to reduced AIMs"}, {"measurement": "ALO AIMs", "setting": "[3]; VZD 5 mg/kg + L-DOPA", "value": "moderately"}, {"measurement": "ALO AIMs", "setting": "[3]; VZD 1 and 2.5 mg/kg + L-DOPA", "value": "modestly reduced AIMs"}, {"measurement": "FAS vs baseline", "setting": "[13]; LD 6 mg/kg alone or with VZD", "value": "significant increases in stepping, relative to baseline, from Day 8 thereafter"}, {"measurement": "FAS vs VZD(0)+LD(6)", "setting": "[13]; VZD 10 mg/kg + LD 6 mg/kg, by Day 15", "value": "significantly enhanced the pro-motor effects of L-DOPA"}, {"measurement": "change in extracellular levels of norepinephrine or dopamine", "setting": "[14]", "value": "no change"}, {"measurement": "FAS motor performance vs baseline", "setting": "[15]; LD 6 mg/kg alone or with VZD 10/20 mg/kg", "value": "emerged 7 days later"}, {"measurement": "FAS stepping vs VZD(0)+LD(6)", "setting": "[15]; VZD 20 mg/kg, Day 29, transient", "value": "depressed stepping"}, {"measurement": "side effects, like 5-HT syndrome", "setting": "hemi-parkinsonian rats", "value": "weren't observed at any time point"}, {"measurement": "spike probability and onset latency", "setting": "[16]", "value": "normalizes spike probability and onset latency"}, {"measurement": "LID duration (time course)", "setting": "[17]; VZD 10 mg/kg + LD 6 mg/kg", "value": "little effect on LID duration"}, {"measurement": "peak dyskinesia (time course)", "setting": "[17]; VZD 10 mg/kg + LD 6 mg/kg", "value": "reduced peak dyskinesia"}, {"measurement": "summed ALO AIMs", "setting": "[17]; VZD 10 mg/kg, WAY 0.5 mg/kg, LD 6 mg/kg s.c.", "value": "significantly reduced ALO AIMs"}, {"measurement": "ALO AIMs, LID development", "setting": "[4]", "value": "persistently reduced AIMs"}, {"measurement": "reduction of development and expression of LID, compared with Amantadine", "setting": "[4]; validated rodent model", "value": "more effective than Amantadine"}]}
{"compound": "Cc1ccc(Sc2ccccc2N2CCNCC2)c(C)c1", "note": "[Vortioxetine]", "values": [{"measurement": "SERT occupancy", "setting": "SERT", "value": "50 to 80", "unit": "%"}]}
